Measurements reported in ChEMBL document CHEMBL5528030, “Discovery of Natural Ah Receptor Antagonists from Salvia miltiorrhiza Bunge and Synthesis of Analogs for Tumor Immunotherapy” (J Med Chem, 2024).

Assays:
[1] = target: T1, Aryl hydrocarbon receptor (Mus musculus, UniProt P30561); experiment: Antagonist activity at AhR receptor in kynurenine-stimulated mouse B16-F10 cells assessed as decrease in IDO-1 gene expression at 10 to 30 uM measured after 48 hrs by RT-qPCR analysis; assay type: cell-based; details: b16-f10, 48 h, dose 10-30 µM
T1 sequence (P30561 whole entry): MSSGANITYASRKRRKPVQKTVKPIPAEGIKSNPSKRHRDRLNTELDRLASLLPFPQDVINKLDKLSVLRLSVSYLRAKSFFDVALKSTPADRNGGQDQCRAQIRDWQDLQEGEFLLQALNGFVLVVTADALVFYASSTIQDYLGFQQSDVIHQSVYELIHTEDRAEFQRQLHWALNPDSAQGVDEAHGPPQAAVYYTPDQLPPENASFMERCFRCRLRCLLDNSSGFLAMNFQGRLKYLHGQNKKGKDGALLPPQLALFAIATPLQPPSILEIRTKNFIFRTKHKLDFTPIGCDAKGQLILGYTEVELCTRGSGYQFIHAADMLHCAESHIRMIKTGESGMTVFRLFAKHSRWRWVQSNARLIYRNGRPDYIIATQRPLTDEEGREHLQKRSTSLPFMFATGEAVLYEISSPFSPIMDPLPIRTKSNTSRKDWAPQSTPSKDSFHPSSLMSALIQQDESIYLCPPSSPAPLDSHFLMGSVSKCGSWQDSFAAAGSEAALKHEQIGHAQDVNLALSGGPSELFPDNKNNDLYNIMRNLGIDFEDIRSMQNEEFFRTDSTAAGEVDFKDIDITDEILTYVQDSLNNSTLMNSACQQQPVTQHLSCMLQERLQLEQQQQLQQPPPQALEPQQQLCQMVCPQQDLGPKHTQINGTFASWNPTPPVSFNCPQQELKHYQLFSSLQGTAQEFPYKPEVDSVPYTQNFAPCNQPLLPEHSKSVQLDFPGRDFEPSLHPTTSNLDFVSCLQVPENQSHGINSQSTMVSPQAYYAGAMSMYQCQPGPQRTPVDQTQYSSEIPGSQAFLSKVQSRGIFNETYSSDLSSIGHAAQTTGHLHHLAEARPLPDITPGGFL

[2] = target: T1, Aryl hydrocarbon receptor; experiment: Antagonist activity at AhR receptor in mouse B16-F10 cells assessed as inhibition of kynurenine-induced receptor nuclear translocation by measuring increase in receptor level in cytoplasm at 10 to 30 uM measured after 72 hrs by Hoechst staining based immunofluorescence analysis; assay type: cell-based; details: b16-f10, 72 h, dose 10-30 µM
[3] = target: T1, Aryl hydrocarbon receptor; experiment: Antagonist activity at AhR receptor in mouse B16-F10 cells assessed as inhibition of kynurenine-induced receptor nuclear translocation by measuring increase in receptor level in cytoplasm at 30 uM measured after 24 hrs by western blot analysis; assay type: subcellular; details: b16-f10, 24 h
[4] = Toxicity against C57BL/6 mouse xenografted with mouse B16-F10 cells assessed as change in body weight at 0.3 to 1 mg/kg, po administered daily and measured for 15 days; assay type: organism-based; details: in vivo, 360 h, dose 0.3-1 mg/kg, time 15 day
[5] = target: T1, Aryl hydrocarbon receptor; experiment: Antagonist activity at AhR receptor in mouse B16-F10 cells assessed as inhibition of kynurenine-induced receptor nuclear translocation by measuring decrease in receptor level in nucleus at 30 uM measured after 24 hrs by western blot analysis; assay type: subcellular; details: b16-f10, 24 h
[6] = target: T1, Aryl hydrocarbon receptor; experiment: Antagonist activity at AhR receptor in mouse B16-F10 cells assessed as inhibition of kynurenine-induced receptor nuclear translocation by measuring decrease in receptor level in nucleus at 10 to 30 uM measured after 72 hrs by Hoechst staining based immunofluorescence analysis; assay type: cell-based; details: b16-f10, 72 h, dose 10-30 µM
[7] = target: T1, Aryl hydrocarbon receptor; experiment: Antagonist activity at AhR receptor in kynurenine-stimulated mouse B16-F10 cells assessed as decrease in AhRR gene expression at 10 to 30 uM measured after 24 hrs by RT-qPCR analysis; assay type: cell-based; details: b16-f10, 24 h, dose 10-30 µM
[8] = target: T1, Aryl hydrocarbon receptor; experiment: Antagonist activity at AhR receptor in kynurenine-stimulated mouse B16-F10 cells assessed as decrease in IL-6 gene expression at 10 to 30 uM measured after 24 hrs by RT-qPCR analysis; assay type: cell-based; details: b16-f10, 24 h, dose 10-30 µM
[9] = test system: B16-F10; experiment: animal or person; details: Mus musculus, B16-F10, 360 h, read-out: TGI
Description: Antitumor activity against mouse B16-F10 cells xenografted in C57BL/6 mouse assessed as inhibition of tumor growth at 100 mg/kg, ip administered once a week and measured for 15 days

Row | SMILES | inhibition (INH) [1] | inhibition (INH) [2] | inhibition (INH) [3] | Activity [4] | inhibition (INH) [5] | inhibition (INH) [6] | inhibition (INH) [7] | inhibition (INH) [8] | inhibition in vivo at 100 mg/kg [9]
1 | CC(=O)OC1Oc2c(C(C)C)cc3ccc4c(C)c(C)ccc4c3c2OC1c1ccccc1 (racemic) | Active | Active | Active | Non-Toxic | Active | Active | Active | Active | 
2 | O=P1(N(CCCl)CCCl)NCCCO1 (centres undefined) [CYCLOPHOSPHAMIDE ANHYDROUS] |  |  |  |  |  |  |  |  | 92.2%
